Test results taken from BindingDB's records for patent US20250230171 (Moma Therapeutics, 2025).

Molecular target: T1, DNA polymerase theta (POLQ) (2-894)
T1 construct: 2-894
Assay: ATPase Assay
Method: POLθ-mediated ATP hydrolysis was measured using the ADP-Glo Kinase Assay (Promega Corporation, Madison, WI). Reactions were performed in white 384-well small-volume microplates (Greiner Bio-One, Frickenhausen, Germany) using a total volume of 15 μL. The ATPase reaction consisted of 1 nM biotinylated Avi-POLθ[2-894], 5 nM of a 50 nucleotide poly-thymine repeat single-stranded DNA (PolyT(50) ssDNA), and 100 μM ATP in 5 μL of assay buffer (50 mM Tris, pH 7.5, 80 mM KCl, 10 MgCl2, 1 mM DTT, 5% glycerol, 0.01% BSA, 0.01% Tween-20). Inhibition of POLΘATPase activity was determined by preparing 11-point serial dilutions of the test compounds in 100% DMSO, then transferring 30 nL of the compounds into the ATPase reaction using an Echo acoustic liquid handler (Beckman Coulter, Brea, CA). DMSO-treated wells containing either all of the reaction components (1 nM biotinylated Avi-POLθ[2-894], 5 nM PolyT(50) ssDNA, 100 μM ATP) or with assay buffer substituted for the biotinylated Avi-POLθ[2-894](0 nM biotinylated Avi-POLθ[2-894], 5 nM PolyT(50) ssDNA, 100 μM ATP) were used to define the maximum and minimum response in the assay. Following a one-hour incubation at ambient temperature, 5 μL of ADP-Glo Reagent was added to the ATPase reaction, and this mixture was allowed to incubate at ambient temperature for an additional hour. Lastly, 5 μL of Kinase Detection Reagent was added, followed by a third one-hour incubation at ambient temperature. The reagent concentrations listed represent the amounts only in the 5 μL ATPase reaction volume.

Row | SMILES | IC50
1 | COc1cnc(Cl)cc1-c1cc(C)ncc1C(=O)Nc1nc2c(s1)CN(C(=O)c1cncc(C(F)F)n1)C2 [US20250230171, Compound 541] | 32.5 nM
2 | COc1cnc(Cl)cc1-c1cc(C)ncc1C(=O)Nc1nc2c(s1)CN(C(=O)c1cncn1C1CC1)C2 [US20250230171, Compound 527] | 8 nM
3 | COc1cnc(Cl)cc1-c1cc(C)ncc1C(=O)Nc1nc2c(s1)CN(C(=O)c1cc(Cl)nn1C)C2 [US20250230171, Compound 436] | 8 nM
4 | COc1ccc(C#N)cc1-c1cc(C)ncc1C(=O)Nc1nc2c(s1)CN(C(=O)c1ccc(C(F)F)cc1)C2 [US20250230171, Compound 438] | 8 nM
5 | COc1cnc(Cl)cc1-c1cc(C)ncc1C(=O)Nc1nc2c(s1)CN(C(=O)c1nc(C)cn1C)C2 [US20250230171, Compound 543] | 32.5 nM
6 | COc1ccc(C(=O)N2Cc3nc(NC(=O)c4cnc(C)cc4-c4cc(Cl)ncc4OC)sc3C2)nn1 [US20250230171, Compound 545] | 32.5 nM
7 | COc1cnc(Cl)cc1-c1cc(C)ncc1C(=O)Nc1nc2c(s1)CN(C(=O)c1c(Cl)c(C)nn1C)C2 [US20250230171, Compound 408] | 8 nM
8 | COc1ncc(C#N)cc1-c1cc(C)ncc1C(=O)Nc1nc2c(s1)CN(C(=O)c1ccc(C(F)F)cn1)C2 [US20250230171, Compound 540] | 32.5 nM
9 | COc1cnc(Cl)cc1-c1cc(C)ncc1C(=O)Nc1nc2c(s1)CN(C(=O)c1nccc(C(F)(F)F)n1)C2 [US20250230171, Compound 431] | 8 nM
10 | COc1cnc(Cl)cc1-c1cc(C)ncc1C(=O)Nc1nc2c(s1)CN(C(=O)c1cc(Cl)cc(C)n1)C2 [US20250230171, Compound 505] | 8 nM
11 | COc1cc2nn(C)cc2cc1-c1cc(C)ncc1C(=O)Nc1nc2c(s1)CN(C(=O)c1cccnc1OC)C2 [US20250230171, Compound 533] | 8 nM
12 | COc1cnc(Cl)cc1-c1cc(C)ncc1C(=O)Nc1nc2c(s1)CN(C(=O)c1cccc(C)n1)C2 [US20250230171, Compound 497] | 8 nM
13 | COc1cc(Cl)ccc1C(=O)N1Cc2nc(NC(=O)c3cnc(C)cc3-c3cc(C#N)ccc3OC)sc2C1 [US20250230171, Compound 467] | 8 nM
14 | COc1cnc(Cl)cc1-c1cc(C)ncc1C(=O)Nc1nc2c(s1)CN(C(=O)c1cnc(OC)c(C(F)F)n1)C2 [US20250230171, Compound 531] | 8 nM
15 | COc1cnc(Cl)cc1-c1cc(C)ncc1C(=O)Nc1nc2c(s1)CN(C(=O)c1cnc(C(F)F)c(Cl)c1)C2 [US20250230171, Compound 445] | 8 nM
16 | COc1cnc(Cl)cc1-c1cc(C)ncc1C(=O)Nc1nc2c(s1)CN(C(=O)c1cnc(C(F)(F)F)nc1C)C2 [US20250230171, Compound 477] | 8 nM
